Test [1] relates to Meloidogyne incognita. Kind of test: Root knot nematode comparative bioactivity test at 600 g ai/ha, drench on cucumber seedlings. It counts as in vivo. Conditions: 14 days after inoculation, (10−GI)×10. As for the experimental part:
We carried out an experiment to evaluate comparative bioactivity of S1, C1, C2, C3, C4, and C5 against the root knot nematode, Meloidogyne incognita. Each compound was tested at 600 grams of active ingredient per hectare (g ai/ha) and was replicated three times. Cucumber seeds (Cucumis sativus) were planted in a sandy loam soil in 3-inch pots. After six (6) days of planting, the seedlings were treated with the test compounds dissolved in 5% acetone in water by drench application. The plants were inoculated with 4,000 second stage juveniles (J2s) of M. incognita. The inoculated plants were kept in a Greenhouse for 14 days (temperature 27° C.) before evaluating the amount of root damage (galls) called Galling Index (GI) based on a scale of 0-10; where 0=no galls (100% nematode control), and 10=maximum galls (no nematode control). The GI was converted to % nematode control using the formula ((10−GI)×10); where GI=Gall Index. The data were analyzed by Analysis of Variance using JMP (John's Macintosh Project) statistical software and the means were separated using Tukey's HSD (α=0.05).

For another test, the system named is M. incognita. The test can be described thus: Residuality test in soil against root knot nematode. It counts as in vivo, Meloidogyne incognita. Particulars: 1250 g ai/ha on bare soil, aged four weeks, then seedlings and 4,000 J2s, evaluated after 14 days. As for the experimental part: A residuality test was conducted to compare the residual control or persistence of S1, R1, C1, C2, C3, C4, and C5 in soil. Each compound was applied to a bare sandy loam soil (without plant or nematode) in a 3-inch pot at 1250 g ai/ha. The treated soils were kept in a Greenhouse (temperature 27° C.) under regular irrigation for four weeks. At the end of the four weeks, six-day old cucumber (Cucumis sativus) seedlings were transplanted into the treated soil and inoculated with 4,000 second stage juveniles of M. incognita. Each treatment was replicated four times. The inoculated plants were kept in a Greenhouse for 14 days (temperature 27° C.) before evaluating the amount of root damage (galls) called Galling Index (GI) based on a scale of 0-10; where 0=no galls (100% nematode control), and 10=maximum galls (no nematode control). The GI were converted to % control using the formula ((10−GI)×10); where GI=Gall Index. The data were analyzed by Analysis of Variance using JMP (John's Macintosh Project) statistical software and the means were separated using Tukey's HSD (α=0.05).

The subject of test [2] is Heterodera glycines second stage juveniles (J2). The test can be described thus: Soybean Cyst Nematode (SCN) in-vitro mortality test. It counts as in vivo. Particulars: SCN LC50. The method, then: We carried out an in-vitro experiment to compare activity of S1, R1, and B1 with each other against the soybean cyst nematode (SCN): Heterodera glycines second stage juveniles (J2). Each of S1, R1, and B1 were tested at six rates: 62.5, 15.6, 4, 1, 0.25, and 0 ppm (untreated control, UTC with three replications of each treatment. Equal volume of nematode suspension was added to an equal volume of compound dissolved in 0.5% DMSO (dimethyl sulfoxide) in water. The nematode plus compound was incubated at room temperature (about 25° C.) on a shaker at 95 revolutions per minutes (RPM). Aliquots of 0.5 milliliters (mL) of the nematode suspension were evaluated under a microscope for mortality after 48 hours of incubation. SCN J2s were counted, and the number of dead and active nematodes was used to calculate % SCN mortality which was used to generate lethal concentration (LC) values by probit analysis.

The next test concerns Pratylechus penetrans. The test can be described thus: Root Lesion Nematode (RLN) in-vitro mortality test. The class given is in vivo. Conditions: RLN LC50. The method, then: We carried out an in-vitro experiment to compare activity of S1, R1, and B1 with each other against the root lesion nematode (RLN), Pratylechus penetrans. Each of S1, R1, and B1 were tested at six rates: 62.5, 15.6, 4, 1, 0.25, and 0 ppm (UTC) with three replications of each treatment. Equal volume of nematode suspension was added to an equal volume of each of S1, R1, and B1 dissolved in 0.5% DMSO (dimethyl sulfoxide) in water in 25 mL vials. The treated nematode suspension was incubated at room temperature (about 25° C.) on a shaker (95 RPM). Aliquots of 1 mL of the nematode suspension was evaluated under a microscope for mortality after 48 hours. RLN were counted, and the number of dead and active nematodes was used to calculate % mortality from which lethal concentration (LC) values were generated.

Test [3] concerns root knot nematode, soybean cyst nematode, root lesion nematode. Kind of test: Average of Delta % over the RKN, SCN and RLN tests of Example One. It counts as in vivo. As for the experimental part:
We conducted an experiment to evaluate comparative bioactivity of S1, R1, and B1 against the root knot nematode (RKN), Meloidogyne incognita. Each of S1, R1, and B1 were tested at six rates: 125, 62.5, 31.25, 15.6, 7.8, 3.9, and 2 ppm. Cucumber seeds (Cucumis sativus) were planted in a sandy loam soil in 3-inch pots. After 6 days of germination, the seedlings were treated with the test compounds dissolved in 5% acetone in water. The treated plants were inoculated with 4,000 second stage juveniles (J2s) of M. incognita. Each experimental unit was replicated three times. The inoculated plants were kept in a Greenhouse for 14 days (about 27° C.) before evaluating the amount of root damage (galls) called Galling Index (GI) based on a scale of 0-10; where 0=no galls (100% control), and 10=maximum galls (no control). […] Effective concentration (EC) values based on the % control of the nematode by S1, R1 and B1 were calculated by probit analysis. […]
We carried out an in-vitro experiment to compare activity of S1, R1, and B1 with each other against the root lesion nematode (RLN), Pratylechus penetrans. […] Aliquots of 1 mL of the nematode suspension was evaluated under a microscope for mortality after 48 hours. RLN were counted, and the number of dead and active nematodes was used to calculate % mortality from which lethal concentration (LC) values were generated.

The subject of test [4] is Meloidogyne incognita. Kind of test: Root Knot Nematode (RKN) test on cucumber seedlings in pots, Galling Index converted to % control, EC by probit analysis. It counts as in vivo. Particulars: RKN EC50. The method, then:
We conducted an experiment to evaluate comparative bioactivity of S1, R1, and B1 against the root knot nematode (RKN), Meloidogyne incognita. Each of S1, R1, and B1 were tested at six rates: 125, 62.5, 31.25, 15.6, 7.8, 3.9, and 2 ppm. Cucumber seeds (Cucumis sativus) were planted in a sandy loam soil in 3-inch pots. After 6 days of germination, the seedlings were treated with the test compounds dissolved in 5% acetone in water. The treated plants were inoculated with 4,000 second stage juveniles (J2s) of M. incognita. Each experimental unit was replicated three times. The inoculated plants were kept in a Greenhouse for 14 days (about 27° C.) before evaluating the amount of root damage (galls) called Galling Index (GI) based on a scale of 0-10; where 0=no galls (100% control), and 10=maximum galls (no control). The GI was converted to % control using the formula (10−GI)×10; where GI=Gall Index. Effective concentration (EC) values based on the % control of the nematode by S1, R1 and B1 were calculated by probit analysis.

For `C[C@H](NC(=O)c1ccoc1Cl)C(C)(C)C` [Molecule C1], the entries for the “Mean Percent Control” value in the test on Meloidogyne incognita [1] and with M. incognita were 54% and 27.5%, respectively.

For the compound `CCC(CC)[C@H](C)NC(=O)c1ccoc1Cl` [Molecule S1, (S)-2-chloro-N-(3-ethylpentan-2-yl)furan-3-carboxamide], the “Delta % vs B1” value in test [2] is 1194%; in the test with Pratylechus penetrans, 259%; with Meloidogyne incognita [4], 240%. Also, in test [3], the “Delta % on average, S1 versus B1” value worked out at 564%.

The values above are taken from patent US20260206752A1, “MOLECULE HAVING PESTICIDAL UTILITY AND PROCESSES RELATED THERETO” (CORTEVA AGRISCIENCE LLC, priority 2022, published 2026).
